Source: ChEMBL document CHEMBL1148160, “Planaxool: a novel cytotoxic cembranoid form the mollusk Planaxis sulcatus” (1993)

Test system: L1210
Test: Cytotoxicity against mouse L1210 cells
Assay type: functional

## C/C1=C\CC[C@]2(C)O[C@H]([C@@H]3OC(=O)[C@]4(OO)CCO[C@@H]2C[C@H]34)[C@H](C)CCC1 [PLANAXOOL]
  IC100: 2.4 µg/mL
